One series has as its target T1, CGRP receptor complex (Homo sapiens, UniProt O60894+Q16602).
T1 construct: SK-N-MC (neuroepithelioma cells) from National Science and Technology Infrastructure; host or cells: SK-N-MC
The experiment in a line: determination of cell functional antagonism - cAMP determination. It is filed as cell-based. The conditions noted are these: inhibition of CGRP-stimulated cAMP formation in SK-N-MC cells. The method, then: A CGRP receptor complex was coupled with Gs in G protein, the combination of CGRP and CGRP receptor complex led to Gs activation, and cAMP (3',5'-cyclic adenosine monophosphate) was produced.
The ability of the compound of the present invention to inhibit CGRP-stimulated cAMP formation in SK-N-MC cells was determined.
SK-N-MC (neuroepithelioma cells) from National Science and Technology Infrastructure - Biomedical Materials and Cell Resources.
The SK-N-MC cells were resuscitated and cultured in advance, and a cell confluence degree should be 70%-80% before use.
4.2 A sample dilution, a tested compound and α-CGRP (human) were prepared.
The SK-N-MC cells were digested, centrifuged, then resuspended with the sample dilution, and inoculated into a 384-well plate. Each well was added with the α-CGRP (human) and the tested compound respectively, and blown and mixed evenly. The well plate was adhered with a sealing film, and placed on an enzyme-labeled incubator to incubate at 25°C.
4.4 cAMP determination: carried out according to LANCE Ultra cAMP Kit specification EucAMP tracer and ULight-anti-cAMP working solutions were prepared in the dark, respectively added into the well plate, and blown and mixed evenly. The well plate was adhered with a sealing film, and placed on an enzyme-labeled incubator to incubate at 25°C.
4.5 A luminescence value was read by a chemiluminescent module of an automatic enzyme-labeled instrument.
A general note: Cyclic AMP is a second messenger, typically raised through Gs and lowered through Gi signalling.

The nature of series [1]: stability test in liver microsomes (monkey). The conditions noted are these: Monkey liver microsomes, 60 min. It counts as in vitro ADME. Here is the method: (§1) The stability of the compound of the present invention in liver microsomes of rat, monkey and human was determined. Tested compounds of the present invention were the compounds in Examples 6 and 8 , and a control drug was Zavegepant.
(§2) 3.2 An appropriate amount of liver microsome solution was transferred into a 1 mL 96-deep-well plate, added with a tested drug liquid (or a probe substrate solution), and pre-incubated in a thermal mixer at 37°C for 5 minutes. Two parts of mixed solutions were taken out from the system and added with 1×PBS to replace NADPH, and the mixed solutions were taken out at 0 and 60 minutes respectively, and added with methanol (containing an internal standard) to terminate the reaction. In the remaining mixed system, each well was added with NADPH to start the reaction. In the tested substance group, mixed solutions were taken out from the system at 0, 5, 15, 30, 45 and 60 minutes, and in the control group, mixed solutions were taken out from the system at 0, 30 and 60 minutes, and the mixed solutions were added methanol (containing an internal standard) to terminate the reaction. All samples of the terminated reaction were mixed evenly and centrifuged in a centrifuge at 3800 rpm for 15 minutes, and the supernatant was taken for LC-MS/MS analysis.
(§3) A peak area was determined by an extracted ion chromatogram. A slope value k was determined by linear regression of a remaining percentage of a parent drug relative to a natural logarithm of an incubation time curve. According to the slope, in-vitro half-life periods (t1/2) were respectively calculated, and in-vitro intrinsic clearance rates (CLint, represented by µL/min/mg protein) were calculated. Calculation formulas were as follows: t1/2 = ln2/k = 0.693/k; and CLint = 0.693/t1/2 /liver microsome protein concentration [formula]
(In general: Microsomes from liver hold many membrane-bound enzymes, among them those of drug oxidation.)

Series [2] is described as follows: PK properties in SD rats with different concentrations of alkyl glycoside (0.05% and 5% DDM). It counts as in vivo. The conditions noted are these: intranasal, 5% DDM vs without DDM. From the text: During preparation of a test sample in the Test Example 7, drug solution groups with 0.05% and 5% dodecyl-β-D-maltosides (DDM) were established and prepared in parallel, so as to compare and observe changes of PK properties in rats administered with the drug solution groups with two different concentrations of dodecyl-β-D-maltosides (DDM).

The nature of series [3]: stability test in liver microsomes (human). The conditions noted are these: Human liver microsomes, 60 min. It counts as in vitro ADME. The method, then: as §1, §2, §3
Series [4] in a line: stability test in liver microsomes (rat). It is filed as in vitro ADME. The note with it: Rat liver microsomes, 60 min. The method, then: as §1, §2, §3
The conditions of series [5]: oral administration with alkyl glucoside, according to CN202180077330.9; cited from earlier work.
Series [6] is described as follows: PK properties in SD rats with or without 0.2% alkyl glycoside (DDM). It is filed as in vivo. The conditions noted are these: for Tmax: Sprague-Dawley, rat, in vivo, inhaled or intranasal. From the text: During preparation of a test sample in the Test Example 5, a drug solution group with 0.2% dodecyl-β-D-maltoside (DDM) was also established and prepared in parallel, so as to compare and observe changes of PK properties in rats administered with the drug solution group with 0.2% dodecyl-β-D-maltoside (DDM) and the drug solution group without dodecyl-β-D-maltoside (DDM).

The source of these data is patent publication EP4781986A1, “PHARMACEUTICAL COMPOSITION HAVING IMPROVED PHARMACOKINETIC PROPERTIES” (Sichuan Purity Pharmaceutical Co., Ltd., priority 2023, dated 2025).

Where two headings read alike, the source gives them in different places.

T1 sequence (Q16602 23-461): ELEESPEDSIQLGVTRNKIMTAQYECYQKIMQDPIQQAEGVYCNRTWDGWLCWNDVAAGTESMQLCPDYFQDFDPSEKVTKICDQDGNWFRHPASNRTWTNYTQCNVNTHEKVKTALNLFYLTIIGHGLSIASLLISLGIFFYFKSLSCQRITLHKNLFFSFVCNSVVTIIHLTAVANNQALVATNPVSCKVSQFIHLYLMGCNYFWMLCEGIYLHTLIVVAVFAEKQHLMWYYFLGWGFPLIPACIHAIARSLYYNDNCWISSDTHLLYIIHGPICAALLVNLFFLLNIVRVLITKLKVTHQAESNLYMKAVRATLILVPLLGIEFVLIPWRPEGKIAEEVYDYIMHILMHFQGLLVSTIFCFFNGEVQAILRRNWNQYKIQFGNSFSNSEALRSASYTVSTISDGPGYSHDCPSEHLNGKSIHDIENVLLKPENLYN
T1 sequence (O60894 27-148): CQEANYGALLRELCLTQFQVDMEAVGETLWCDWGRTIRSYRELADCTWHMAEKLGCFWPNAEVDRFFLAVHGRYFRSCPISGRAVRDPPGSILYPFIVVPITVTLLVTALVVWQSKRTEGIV

A word on the IC50: it is the concentration that gives 50% inhibition. For `Cc1cc(C[C@@H](NC(=O)N2CCC(c3cc4c([nH]c3=O)SCC4)CC2)C(=O)N2C3CCC2CC(N2CCCCC2)C3)cc2cn[nH]c12` (stereo partly drawn) [Example 34, N-((2R)-3-(7-methyl-1H-indazole-5-yl)-1-oxo-1-(3-(piperidine-1-yl)-8-azabicyclo[3.2.1]octane-8-yl)propan-2-yl)-4-(6-oxo-2,3,6,7-tetrahydrothieno[2,3-b]pyridine-5-yl)piperidine-1-formamide], at CGRP receptor complex, the IC50 was 0.2 nM.

In the case of `Cc1cc(C[C@@H](NC(=O)N2CCC(c3cc4ccccc4[nH]c3=O)CC2)C(=O)N2CCN(C3CCN(C)CC3)CC2)cc2cn[nH]c12` [Zavegepant, zavegepant, reference compound], the “% remaining (60 min)” value in series [1] was determined as 72.1%; in series [3] it was 57.5%; in series [4] it was 95.5%. Moreover, the “Tmax(DDM 5%)/ Tmax(DDM 0%)” value in series [2] came to 50%. Further, in series [5], the AUC result was “no obvious changes”. Further, the Cmax result in series [5] is recorded as “no obvious changes”. Moreover, the Tmax result is “prolonged to some extent” in series [5], 12.5 min in series [6] (0.2% DDM) and 15 min in series [6] (not added with DDM (0%DDM)). In addition, in series [6] (intranasal, 0.2% dodecyl-β-D-maltoside (DDM) vs without DDM), the “Tmax(DDM 0.2%)/ Tmax(DDM 0%)” value was 83.6%.

Consider `Cc1cc(C[C@@H](NC(=O)N2CCC(c3cc4c([nH]c3=O)CCCS4)CC2)C(=O)N2CCN(C3CCN(C)CC3)CC2)cc2cn[nH]c12` [Example 12, (R)-N-(3-(7-methyl-1H-indazole-5-yl)-1-(4-(1-methylpiperidine-4-yl)piperazine-1-yl)-1-oxopropan-2-yl)-4-(6-oxo-3,4,5,6-tetrahydro-2H-thiopyrano[3,2-b]pyridine-7-yl)piperidine-1-formamide], for which, on CGRP receptor complex, the concentration for half-maximal inhibition (IC50) was found to be 16.9 nM.

Consider `Cc1cc(C[C@@H](NC(=O)C2CCN(c3cc4c([nH]c3=O)SCCC4)CC2)C(=O)N2CCN(C3CCN(C)CC3)CC2)cc2cn[nH]c12` [Example 21, (R)-N-(3-(7-methyl-1H-indazole-5-yl)-1-(4-(1-methylpiperidine-4-yl)piperazine-1-yl)-1-oxopropan-2-yl)-1-(7-oxo-3,4,7,8-tetrahydro-2H-thiopyrano[2,3-b]pyridine-6-yl)piperidine-4-formamide], for which the concentration for half-maximal inhibition (IC50) on CGRP receptor complex worked out at 590 nM.

Consider `Cc1cc(C[C@@H](NC(=O)N2CCC(c3cc4c([nH]c3=O)SCC=C4)CC2)C(=O)N2CCN(C3CCN(C)CC3)CC2)cc2cn[nH]c12` [Example 48, (R)-N-(3-(7-methyl-1H-indazole-5-yl)-1-(4-(1-methylpiperidine-4-yl)piperazine-1-yl)-1-oxopropan-2-yl)-4-(7-oxo-7,8-dihydro-2H-thiopyrano[2,3-b]pyridine-6-yl)piperidine-1-formamide], for which, on CGRP receptor complex, the half-maximal inhibitory concentration (IC50) was 0.15 nM.

Regarding `Cc1cc(C[C@@H](NC(=O)N2CCC(c3cc4c([nH]c3=O)SCCC4)CC2)C(=O)N2CCC(N3CCN(C)CC3)CC2)cc2cn[nH]c12` [Example 25, (R)-N-(3-(7-methyl-1H-indazole-5-yl)-1-(4-(4-methylpiperazine-1-yl)piperidine-1-yl)-1-oxopropan-2-yl)-4-(7-oxo-3,4,7,8-tetrahydro-2H-thiopyrano[2,3-b]pyridine-6-yl)piperidine-1-formamide], the half-inhibitory concentration (IC50) at CGRP receptor complex stood at 0.79 nM.

For `Cc1cc(C[C@@H](NC(=O)N2CCC(c3cc4c([nH]c3=O)C3CCC4C3)CC2)C(=O)N2CCN(C3CCN(C)CC3)CC2)cc2cn[nH]c12` (stereo partly drawn) [Example 45, N-((R)-3-(7-methyl-1H-indazole-5-yl)-1-(4-(1-methylpiperidine-4-yl)piperazine-1-yl)-1-oxopropan-2-yl)-4-(2-oxo-1,2,5,6,7,8-hexahydro-5,8-methanoquinoline-3-yl)piperidine-1-formamide], the IC50 on CGRP receptor complex was found to be 26 nM.

Take `[2H]C1([2H])SCc2cc(C3CCN(C(=O)N[C@H](Cc4cc(C)c5[nH]ncc5c4)C(=O)N4CCN(C5CCN(C)CC5)CC4)CC3)c(=O)[nH]c21` [Example 14, (R)-N-(3-(7-methyl-1H-indazole-5-yl)-1-(4-(1-methylpiperidine-4-yl)piperazine-1-yl)-1-oxopropan-2-yl)-4-(2-oxo-1,2,5,7-tetrahydrothieno[3,4-b]pyridine-3-yl-7,7-d2)piperidine-1-formamide]: the IC50 at CGRP receptor complex amounted to 6.85 nM.

`Cc1cc(C[C@@H](NC(=O)N2CCC(c3cc4c([nH]c3=O)CCSC4)CC2)C(=O)N2CCN(C3CCN(C)CC3)CC2)cc2cn[nH]c12` [Example 15, (R)-N-(3-(7-methyl-1H-indazole-5-yl)-1-(4-(1-methylpiperidine-4-yl)piperazine-1-yl)-1-oxopropan-2-yl)-4-(2-oxo-1,5,7,8-tetrahydro-2H-thiopyrano[4,3-b]pyridine-3-yl)piperidine-1-formamide]: the IC50 at CGRP receptor complex was 10.1 nM.
